Measured values published in article PMC4979471 (Cell Death Discovery, 2015).
Where two headings read alike, the source gives them in different places.

Columns and labels:
Test in all cases: Kinase selectivity, P33-radiolabeled assay
Format in all cases: biochemical
Details in all cases: 10 μM ATP
CDK5/p35 = target: T1, CDK5/p35 (Homo sapiens, UniProt Q00535)
T1 construct: purchased Reaction Biology Corp
Procedure, shortened: (§1)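 Reactions contained 10 μM ATP and 10 μM test compound, each run in duplicate. Kinase activity is expressed as a percentage of DMSO-treated controls.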

CTK/MATK = target: T2, CTK/MATK (Homo sapiens, UniProt P42679)
T2 construct: purchased Reaction Biology Corp
T2 sequence (P42679 1-507): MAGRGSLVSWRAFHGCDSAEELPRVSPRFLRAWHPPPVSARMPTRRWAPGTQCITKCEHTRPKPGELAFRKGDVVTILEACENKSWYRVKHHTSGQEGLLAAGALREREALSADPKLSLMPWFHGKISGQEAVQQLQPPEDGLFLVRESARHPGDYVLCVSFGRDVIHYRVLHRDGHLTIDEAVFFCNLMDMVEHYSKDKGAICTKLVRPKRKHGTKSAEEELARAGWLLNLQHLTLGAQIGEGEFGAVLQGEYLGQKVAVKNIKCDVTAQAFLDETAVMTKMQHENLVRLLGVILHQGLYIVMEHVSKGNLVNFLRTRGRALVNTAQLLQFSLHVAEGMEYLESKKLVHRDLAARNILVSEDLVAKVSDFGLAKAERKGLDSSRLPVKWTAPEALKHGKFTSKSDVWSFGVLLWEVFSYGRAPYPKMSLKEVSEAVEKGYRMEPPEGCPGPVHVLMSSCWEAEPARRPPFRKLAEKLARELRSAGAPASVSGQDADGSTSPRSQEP
Procedure, shortened: as §1

DYRK1B = target: T3, DYRK1B (Homo sapiens, UniProt Q9Y463)
T3 construct: purchased Reaction Biology Corp
T3 sequence (Q9Y463 whole entry): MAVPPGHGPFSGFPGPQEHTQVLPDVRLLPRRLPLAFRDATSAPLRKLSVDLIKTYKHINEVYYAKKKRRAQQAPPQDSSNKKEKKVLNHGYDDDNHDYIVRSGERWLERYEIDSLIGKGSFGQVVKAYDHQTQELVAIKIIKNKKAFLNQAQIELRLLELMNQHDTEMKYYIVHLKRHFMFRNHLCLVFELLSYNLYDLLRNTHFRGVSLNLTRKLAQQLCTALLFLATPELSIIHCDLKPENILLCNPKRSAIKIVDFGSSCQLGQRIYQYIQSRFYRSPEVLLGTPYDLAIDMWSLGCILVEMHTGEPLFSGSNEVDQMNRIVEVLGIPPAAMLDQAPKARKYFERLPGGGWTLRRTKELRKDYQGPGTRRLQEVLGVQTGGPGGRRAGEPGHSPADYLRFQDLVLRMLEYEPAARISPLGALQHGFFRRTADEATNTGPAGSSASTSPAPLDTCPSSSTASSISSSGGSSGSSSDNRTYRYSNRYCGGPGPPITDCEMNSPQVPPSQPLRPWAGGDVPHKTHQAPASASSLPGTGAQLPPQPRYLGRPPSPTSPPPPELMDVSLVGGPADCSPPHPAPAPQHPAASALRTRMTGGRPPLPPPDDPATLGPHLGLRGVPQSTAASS
Procedure, shortened: as §1

MNK2 = target: T4, MNK2 (Homo sapiens, UniProt Q9HBH9)
T4 construct: purchased Reaction Biology Corp
T4 sequence (Q9HBH9 whole entry): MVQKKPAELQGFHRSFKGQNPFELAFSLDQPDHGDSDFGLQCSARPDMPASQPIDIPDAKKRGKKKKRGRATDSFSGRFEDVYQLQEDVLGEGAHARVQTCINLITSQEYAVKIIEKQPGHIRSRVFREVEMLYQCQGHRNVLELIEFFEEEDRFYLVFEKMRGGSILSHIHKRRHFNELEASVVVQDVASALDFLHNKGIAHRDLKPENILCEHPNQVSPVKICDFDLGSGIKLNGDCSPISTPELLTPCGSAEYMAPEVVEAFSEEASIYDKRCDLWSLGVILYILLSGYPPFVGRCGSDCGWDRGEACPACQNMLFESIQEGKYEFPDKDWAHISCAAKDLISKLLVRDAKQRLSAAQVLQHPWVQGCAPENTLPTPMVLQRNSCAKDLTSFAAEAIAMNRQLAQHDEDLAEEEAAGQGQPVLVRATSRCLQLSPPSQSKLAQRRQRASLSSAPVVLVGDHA
Procedure, shortened: as §1

MYO3b = target: T5, MYO3b (Homo sapiens, UniProt Q8WXR4)
T5 construct: purchased Reaction Biology Corp
T5 sequence (Q8WXR4 1-1341): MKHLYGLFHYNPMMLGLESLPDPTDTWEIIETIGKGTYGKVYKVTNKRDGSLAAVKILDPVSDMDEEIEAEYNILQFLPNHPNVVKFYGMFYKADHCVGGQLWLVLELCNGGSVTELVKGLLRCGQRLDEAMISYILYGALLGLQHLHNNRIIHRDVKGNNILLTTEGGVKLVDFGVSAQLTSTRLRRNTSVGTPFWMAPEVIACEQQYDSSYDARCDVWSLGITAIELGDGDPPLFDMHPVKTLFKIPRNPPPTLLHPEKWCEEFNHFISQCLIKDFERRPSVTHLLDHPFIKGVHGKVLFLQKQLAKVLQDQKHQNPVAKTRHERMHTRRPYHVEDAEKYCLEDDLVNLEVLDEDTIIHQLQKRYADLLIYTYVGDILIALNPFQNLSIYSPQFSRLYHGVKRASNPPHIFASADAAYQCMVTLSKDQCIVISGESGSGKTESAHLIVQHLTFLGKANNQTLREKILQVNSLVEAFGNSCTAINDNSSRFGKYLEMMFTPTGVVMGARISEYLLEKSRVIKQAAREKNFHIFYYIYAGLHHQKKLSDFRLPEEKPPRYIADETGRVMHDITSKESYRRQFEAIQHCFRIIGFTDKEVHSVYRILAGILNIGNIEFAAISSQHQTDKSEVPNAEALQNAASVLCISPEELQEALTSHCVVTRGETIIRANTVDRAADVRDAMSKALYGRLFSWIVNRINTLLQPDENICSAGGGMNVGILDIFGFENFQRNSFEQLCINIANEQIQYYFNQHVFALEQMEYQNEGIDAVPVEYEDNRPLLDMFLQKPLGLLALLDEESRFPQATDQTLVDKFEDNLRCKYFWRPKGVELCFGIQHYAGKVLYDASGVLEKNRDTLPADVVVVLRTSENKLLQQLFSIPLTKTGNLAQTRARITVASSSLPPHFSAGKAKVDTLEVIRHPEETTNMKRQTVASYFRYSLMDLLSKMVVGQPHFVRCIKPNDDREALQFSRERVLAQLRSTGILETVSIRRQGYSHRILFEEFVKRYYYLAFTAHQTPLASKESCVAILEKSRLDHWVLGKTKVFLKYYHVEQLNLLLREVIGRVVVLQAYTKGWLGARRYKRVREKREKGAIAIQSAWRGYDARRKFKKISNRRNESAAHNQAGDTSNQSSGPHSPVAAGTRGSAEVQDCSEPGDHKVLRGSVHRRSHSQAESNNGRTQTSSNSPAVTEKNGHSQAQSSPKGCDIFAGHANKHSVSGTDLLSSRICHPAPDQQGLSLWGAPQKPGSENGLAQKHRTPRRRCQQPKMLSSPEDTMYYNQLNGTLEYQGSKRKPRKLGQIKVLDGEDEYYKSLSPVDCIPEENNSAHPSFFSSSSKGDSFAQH
Procedure, shortened: as §1

PIM2 = target: T6, PIM2 (Homo sapiens, UniProt Q9P1W9)
T6 construct: purchased Reaction Biology Corp
T6 sequence (Q9P1W9 whole entry): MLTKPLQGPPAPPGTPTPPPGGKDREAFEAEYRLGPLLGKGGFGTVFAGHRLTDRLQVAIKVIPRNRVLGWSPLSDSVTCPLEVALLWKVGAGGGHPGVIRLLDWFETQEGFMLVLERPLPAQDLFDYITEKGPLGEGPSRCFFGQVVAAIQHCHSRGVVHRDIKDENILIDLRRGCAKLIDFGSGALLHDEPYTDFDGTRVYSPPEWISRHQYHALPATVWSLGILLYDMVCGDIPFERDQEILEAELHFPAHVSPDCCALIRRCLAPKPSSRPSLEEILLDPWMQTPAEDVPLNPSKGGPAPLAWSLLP
Procedure, shortened: as §1

PLK3 = target: T7, PLK3 (Homo sapiens, UniProt Q9H4B4)
T7 construct: purchased Reaction Biology Corp
T7 sequence (Q9H4B4 whole entry): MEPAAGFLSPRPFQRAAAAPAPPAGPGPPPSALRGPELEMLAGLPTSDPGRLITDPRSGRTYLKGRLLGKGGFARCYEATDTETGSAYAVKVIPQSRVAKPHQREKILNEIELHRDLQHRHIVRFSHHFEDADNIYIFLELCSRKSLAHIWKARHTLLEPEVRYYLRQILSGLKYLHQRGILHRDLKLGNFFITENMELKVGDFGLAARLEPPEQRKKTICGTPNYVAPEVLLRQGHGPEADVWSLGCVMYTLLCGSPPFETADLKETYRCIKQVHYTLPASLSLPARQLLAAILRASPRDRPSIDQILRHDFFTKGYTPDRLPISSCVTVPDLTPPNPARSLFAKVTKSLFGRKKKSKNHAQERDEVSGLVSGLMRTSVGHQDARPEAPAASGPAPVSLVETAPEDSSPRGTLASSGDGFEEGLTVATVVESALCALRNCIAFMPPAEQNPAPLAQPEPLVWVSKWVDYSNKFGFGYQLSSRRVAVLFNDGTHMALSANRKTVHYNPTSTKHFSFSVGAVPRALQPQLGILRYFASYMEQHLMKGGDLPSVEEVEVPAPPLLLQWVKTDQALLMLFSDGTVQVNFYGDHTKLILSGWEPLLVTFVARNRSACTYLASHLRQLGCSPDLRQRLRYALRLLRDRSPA
Procedure, shortened: as §1

STK25/YSK1 = target: T8, STK25/YSK1 (Homo sapiens, UniProt O00506)
T8 construct: purchased Reaction Biology Corp
T8 sequence (O00506 whole entry): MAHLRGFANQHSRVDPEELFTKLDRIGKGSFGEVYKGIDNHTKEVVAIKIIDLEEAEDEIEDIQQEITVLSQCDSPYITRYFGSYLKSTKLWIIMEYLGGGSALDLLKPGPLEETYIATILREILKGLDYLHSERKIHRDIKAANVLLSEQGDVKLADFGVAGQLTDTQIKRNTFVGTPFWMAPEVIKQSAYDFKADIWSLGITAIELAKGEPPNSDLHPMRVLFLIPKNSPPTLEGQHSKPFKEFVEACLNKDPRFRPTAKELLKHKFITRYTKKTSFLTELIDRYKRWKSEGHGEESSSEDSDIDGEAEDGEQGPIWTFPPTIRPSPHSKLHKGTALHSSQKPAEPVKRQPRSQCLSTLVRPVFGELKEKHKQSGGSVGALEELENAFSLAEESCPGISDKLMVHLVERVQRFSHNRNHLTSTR
Procedure, shortened: as §1

[1] = read-out: % Enzyme Activity (relative to DMSO controls) AVG
[2] = read-out: % Enzyme Activity (relative to DMSO controls) Data 1
[3] = read-out: % Enzyme Activity (relative to DMSO controls) Data 2

T1 sequence (Q00535 whole entry): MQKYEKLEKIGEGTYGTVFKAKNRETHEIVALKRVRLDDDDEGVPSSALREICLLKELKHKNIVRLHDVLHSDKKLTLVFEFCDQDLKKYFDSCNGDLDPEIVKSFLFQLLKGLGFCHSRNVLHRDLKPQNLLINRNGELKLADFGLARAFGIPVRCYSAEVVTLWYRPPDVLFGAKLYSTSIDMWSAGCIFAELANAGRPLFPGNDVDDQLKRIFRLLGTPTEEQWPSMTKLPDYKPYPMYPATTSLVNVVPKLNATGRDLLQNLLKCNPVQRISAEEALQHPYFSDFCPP
T1 sequence (Q15078 whole entry partner): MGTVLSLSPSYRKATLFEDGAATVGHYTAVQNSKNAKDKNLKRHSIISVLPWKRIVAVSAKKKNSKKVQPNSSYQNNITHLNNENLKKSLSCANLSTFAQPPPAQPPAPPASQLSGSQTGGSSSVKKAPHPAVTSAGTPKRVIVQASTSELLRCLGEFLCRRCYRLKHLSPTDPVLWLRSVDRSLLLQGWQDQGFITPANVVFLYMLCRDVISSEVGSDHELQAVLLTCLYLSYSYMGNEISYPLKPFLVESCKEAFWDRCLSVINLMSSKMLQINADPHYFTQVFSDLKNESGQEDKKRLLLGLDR

CC(C)(C)C(=O)N1N=CC[C@H]1c1ccccc1 [GSK′963]
remaining activity at 10 µM (CDK5/p35; [1]): 96.2%
remaining activity at 10 µM (CDK5/p35; [2]): 95.5%
remaining activity at 10 µM (CDK5/p35; [3]): 97%
remaining activity at 10 µM (CTK/MATK; [1]): 93%
remaining activity at 10 µM (CTK/MATK; [2]): 91.5%
remaining activity at 10 µM (CTK/MATK; [3]): 94.5%
remaining activity at 10 µM (DYRK1B; [1]): 102%
remaining activity at 10 µM (DYRK1B; [2]): 103%
remaining activity at 10 µM (DYRK1B; [3]): 101%
remaining activity at 10 µM (MNK2; [1]): 109%
remaining activity at 10 µM (MNK2; [2]): 107%
remaining activity at 10 µM (MNK2; [3]): 111%
remaining activity at 10 µM (MYO3b; [1]): 111%
remaining activity at 10 µM (MYO3b; [2]): 111%
remaining activity at 10 µM (MYO3b; [3]): 111%
remaining activity at 10 µM (PIM2; [1]): 115%
remaining activity at 10 µM (PIM2; [2]): 112%
remaining activity at 10 µM (PIM2; [3]): 118%
remaining activity at 10 µM (PLK3; [1]): 92.5%
remaining activity at 10 µM (PLK3; [2]): 95.5%
remaining activity at 10 µM (PLK3; [3]): 89.5%
remaining activity at 10 µM (STK25/YSK1; [1]): 96.1%
remaining activity at 10 µM (STK25/YSK1; [2]): 96.7%
remaining activity at 10 µM (STK25/YSK1; [3]): 95.4%
